# Assays:
# [1] = tested on: Lactobacillus plantarum LMG P-26358; assay: growth profile in MRS broth substituted with various sugars; type: cell-based; settings: for GT (generation time) / μmax (specific growth rate): 2% sugar in the MRS broth; for ability of Lb. plantarum LMG P-26358 to grow on the sugar: sugar acidification profiles
# L. innocua = assay: frequency of bacteriocin resistance development; type: cell-based, Listeria innocua; settings: 2560 au/ml bacteriocin (purified preparation) and/or 320 au/ml nisin
# Procedure: The frequency of development of resistance in L. innocua to 2560 au/ml of the bacteriocin produced by Lb. plantarum LMG P-26358 (purified preparation) was calculated at 1.13×10^−3. […] The resistant colonies were picked off and tested for their sensitivity to the bacteriocin produced by Lb. plantarum LMG P-26358.
Compound,GT (generation time) [1] [min],μmax (specific growth rate) [1] [OD600 · hour^−1],ability of Lb. plantarum LMG P-26358 to grow on the sugar [1],frequency of development of resistance in L. innocua (L. innocua)
O=C[C@H](O)[C@@H](O)[C@H](O[C@@H]1O[C@H](CO)[C@@H](O)[C@H](O)[C@H]1O)[C@H](O)CO [Cellobiose],90,0.2018,capable of growing,
O=C(CO)[C@@H](O)[C@H](O)[C@H](O)CO [Fructose],104,0.174,capable of growing,
O=C[C@H](O)[C@@H](O)[C@@H](O)[C@H](O)CO [Galactose],123,0.1473,capable of growing,
OC[C@H]1O[C@@H](O[C@H]2[C@H](O)[C@@H](O)C(O)O[C@@H]2CO)[C@H](O)[C@@H](O)[C@H]1O (stereo partly shown) [Lactose],100,0.1815,can grow efficiently,
OC[C@H]1O[C@H](O[C@H]2[C@H](O)[C@@H](O)[C@H](O)O[C@@H]2CO)[C@H](O)[C@@H](O)[C@@H]1O [Maltose],79,0.2277,capable of growing,
OC[C@H]1O[C@H](OC[C@H]2O[C@H](O[C@]3(CO)O[C@H](CO)[C@@H](O)[C@@H]3O)[C@H](O)[C@@H](O)[C@@H]2O)[C@H](O)[C@@H](O)[C@H]1O [Raffinose],246,0.0734,unable to metabolise,
OC[C@H]1O[C@@](CO)(O[C@H]2O[C@H](CO)[C@@H](O)[C@H](O)[C@H]2O)[C@@H](O)[C@@H]1O [Sucrose],86,0.2088,capable of growing,
OC[C@H]1O[C@H](O[C@H]2O[C@H](CO)[C@@H](O)[C@H](O)[C@H]2O)[C@H](O)[C@@H](O)[C@@H]1O [Trehalose],92,0.1963,capable of growing,
nisin,,,,2.16×10^−2

# — US9332770B2, “Anti-listerial mixed culture and method for producing cheese” (CSK Food Enrichment B.V., priority 2011, dated 2016)
